Non-standard residues stand in square brackets, D forms with d. Residues, ends and D or L forms follow the SMILES beside them. *: point of attachment. Myristoyl = CCCCCCCCCCCCCC(=O)*; Octanoyl = CCCCCCCC(=O)*
What was measured:
[1] = Stability of conjugates in Simulated Gastric Fluid (SGF); assay type: in vitro ADME; conditions: simulated gastric fluid pH 1.6 with pepsin, 1 μM, 37° C.
In short: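 Compounds at 1 μM (from 1 mM DMSO stock) were incubated at 37°C in simulated gastric fluid, NaCl pH 1.6 with FaSSIF powder and 0.1 mg/mL pepsin. Aliquots taken at T0 and regular intervals were quenched with an equal volume of acetonitrile and analysed by LC/MS for degradation rate.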

[2] = test system: CT26.CL25 cells; experiment: Cell viability readout (CellTiter-Glo) with bacteria-free media; assay type: cell-based, mouse; conditions: 10 nM compound, CT26.CL25 cells, 72 h, CellTiter-Glo
Protocol: Example 100: Cell-Based Assay of Bacterial Enzymes with Mammalian CT26.CL25 Mouse Colorectal Carcinoma Viability Readout
Bacteria-free media was incubated with the indicated test compound. ((R)—N1-(2-(methylamino)ethyl)-2-octanamidosuccinamide, a recognition element-linker conjugate lacking a payload, was serially diluted 1:1000 in DMSO and […] in medium+10% FBS to give a final concentration of 10 nM. Compound 35, Compound 76, Compound 77, Compound 78, Compound 79, and SN-38 were serially diluted 1:1000 in DMSO and 1:1000 in medium to give a final concentration of 10 nM, and then the bacteria-free supernatants were tested for their ability to kill mammalian cells. As an additional control, the test compound will also be incubated with bacteria-free media. The above steps can also be performed in the presence of E. coli (CFT073 ATCC 700928, Nissle 1917, or BL21 (DE3)) to effect cleavage of the conjugates of the application.
On Day 1, CT26.CL25 cells (15,000 cells/well) were seeded in triplicate into a 24 well plate and incubated overnight in 100 μL of complete medium. The reactions (bacteria or media blank) was pelleted by centrifugation, and then the supernatant was passed through a 0.2 μm sterile filter to remove residual bacteria.
On Day 2, 300 μL of a 10 nM solution of each compound in media were applied to separate wells of CT26.CL25 cells as prepared on Day 1. The cells were incubated at 37° C. for 72 h. After this point, viability was assessed using a CellTiter-Glo kit.
Binning of the compounds was achieved by measuring cell growth or arrest (e.g. remaining cells are >90% viable, >80% viable, >70% viable, >60% viable, >50% viable, >40% viable, >30% viable, >20% viable, or >10% viable).

[3] = test system: E. coli BL21(DE3); experiment: Payload release in the presence of fecal matter, ClbP negative E. coli; assay type: cell-based; conditions: 10 μM compound, anaerobic, 37° C., 20 h, LCMS
Description: (§1) This example is representative of the methods described in Example 103. Fecal samples were subjected to metagenomic whole-genome shotgun sequencing followed by querying the dataset for the presence of the clbP gene or by attempting to amplify the gene with primers specific for it by qPCR. Samples that gave a signal below the detection limit were used in subsequent steps. The fecal sample was resuspended as a 15% (w/v) slurry in Anaerobic Phosphate Buffer Saline.
(§2) Following steps 1 and 2 as detailed in Example 98, E. coli CFT073 ATCC 700928, E. coli Nissle 1917, or E. coli BL21(DE3) were grown in liquid culture.
(§3) In an anaerobic chamber, the E. coli strains were added to the fecal samples obtained in step 1 at a dilution level calculated to represent 0, 1, 10, 50, 90, 99, or 100% of all organisms present in PRAS dilution blank on a 200 μL volume. The test compound (10 μM final concentration) was added to the mixture. The test compound was also added to a bacteria-free media control under similar conditions. The plate was sealed and incubated at 37° C. for 20 h. Under similar conditions, a standard curve of both the starting material and the payload compound was made in bacteria-free media.
(§4) After 20 h, an aliquot was tested for breakdown and release of a payload by LCMS by diluting serially to a final dilution of 1:100 first with Acetonitrile (10× dilution) and then with (1:1) Mobile Phase A-0.1% Formic Acid in Water:Mobile Phase B-0.1% Formic acid in Acetonitrile (1 OX dilution), with absolute quantification compared to the external standard curve. In an ideal case, the amount of payload released in the reaction(s) with ClbP-encoding E. coli was >75% of the theoretical maximum, and none was released in the E. coli BL21(DE3) and media-alone conditions. In an acceptable case, the amount of payload released in the reaction(s) with ClbP-encoding E. coli was 25-75% of the theoretical maximum, and <25% of the theoretical maximum was released in the E. coli BL21(DE3) and media-alone conditions. In a non-preferred case, the amount of payload released in the reactions(s) with ClbP-encoding E. coli was <25% of the theoretical maximum, and >25% of the theoretical maximum was released in the E. coli BL21(DE3) and media-alone conditions.

[4] = test system: E. coli Nissle 1917; experiment: Payload release in the presence of fecal matter, ClbP positive E. coli; assay type: cell-based; conditions: 10 μM compound, anaerobic, 37° C., 20 h, LCMS
Description: as §1, §2, §3, §4

## CCCCCCCCCCCCCC(=O)N[C@H](CC(N)=O)C(=O)N[C@@H](C)C(=O)OC [Example 1, Methyl tetradecanoyl-D-asparaginyl-L-alaninate] (Myristoyl-[dN]-Ala-OMe)
[1]
  Assay 1 (SGF) (% Remaining @ 1 hours): C (>75% of the tested compound remaining)

## CCCCCCCC(=O)N[C@H](CC(N)=O)C(=O)N[C@@H](C)C(=O)OC [Example 2, Methyl octanoyl-D-asparaginyl-L-alaninate] (Octanoyl-[dN]-Ala-OMe)
[1]
  Assay 1 (SGF) (% Remaining @ 1 hours): C (>75% of the tested compound remaining)

## CCCCCCCC(=O)N[C@@H](CC(N)=O)C(=O)N[C@@H](C)C(=O)OC [Example 4, Methyl octanoyl-L-asparaginyl-L-alaninate] (Octanoyl-Asn-Ala-OMe)
[1]
  Assay 1 (SGF) (% Remaining @ 1 hours): C (>75% of the tested compound remaining)

## CCCCCCCC(=O)N[C@H](CC(N)=O)C(=O)N[C@H](C)C(=O)OC [Example 5, Methyl octanoyl-D-asparaginyl-D-alaninate] (Octanoyl-[dN]-[dA]-OMe)
[1]
  Assay 1 (SGF) (% Remaining @ 1 hours): C (>75% of the tested compound remaining)

## CCCCCCCC(=O)N[C@H](CC(N)=O)C(=O)N[C@H](C(=O)OC)C(C)C [Example 6, Methyl octanoyl-D-asparaginyl-L-valinate] (Octanoyl-[dN]-Val-OMe)
[1]
  Assay 1 (SGF) (% Remaining @ 1 hours): C (>75% of the tested compound remaining)

## CCCCCCCC(=O)N[C@H](CC(N)=O)C(=O)N[C@@H](CC(C)C)C(=O)OC [Example 7, Methyl octanoyl-D-asparaginyl-L-leucinate] (Octanoyl-[dN]-Leu-OMe)
[1]
  Assay 1 (SGF) (% Remaining @ 1 hours): C (>75% of the tested compound remaining)

## CCCCCCCC(=O)N[C@H](CCC(=O)O)C(=O)N[C@@H](C)C(=O)OC [Example 9, (R)-5-(((S)-1-methoxy-1-oxopropan-2-yl)amino)-4-octanamido-5-oxopentanoic acid] (Octanoyl-[dE]-Ala-OMe)
[1]
  Assay 1 (SGF) (% Remaining @ 1 hours): C (>75% of the tested compound remaining)

## CCCCCCCC(=O)N[C@H](CCC(N)=O)C(=O)N[C@@H](C)C(=O)OC [Example 10, Methyl octanoyl-D-glutaminyl-L-alaninate] (Octanoyl-[dQ]-Ala-OMe)
[1]
  Assay 1 (SGF) (% Remaining @ 1 hours): C (>75% of the tested compound remaining)

## CCCCCCCC(=O)N[C@H](CCCNC(=N)N)C(=O)N[C@@H](C)C(=O)OC [Example 11, Methyl octanoyl-D-arginyl-L-alaninate] (Octanoyl-[dR]-Ala-OMe)
[1]
  Assay 1 (SGF) (% Remaining @ 1 hours): C (>75% of the tested compound remaining)

## COC(=O)[C@H](C)NC(=O)[C@@H](CC(N)=O)NC(=O)[C@@H](C)c1ccc2cc(OC)ccc2c1 [Example 18, Methyl ((S)-2-(6-methoxynaphthalen-2-yl)propanoyl)-D-asparaginyl-L-alaninate]
[1]
  Assay 1 (SGF) (% Remaining @ 1 hours): C (>75% of the tested compound remaining)

## CCCCCCCCCCCCCC(=O)N[C@H](CC(N)=O)C(=O)NCCCC(=O)OC [Example 20, Methyl (R)-4-(4-amino-4-oxo-2-tetradecanamidobutanamido)butanoate]
[1]
  Assay 1 (SGF) (% Remaining @ 1 hours): C (>75% of the tested compound remaining)

## CCCCCCCCCCCCCC(=O)N[C@H](CC(N)=O)C(=O)N[C@@H](C)CCC(=O)OC [Example 21, Methyl (S)-4-((R)-4-amino-4-oxo-2-tetradecanamidobutanamido)pentanoate]
[1]
  Assay 1 (SGF) (% Remaining @ 1 hours): C (>75% of the tested compound remaining)

## CCCCCCCCCCCCCC(=O)N[C@H](CC(N)=O)C(=O)Nc1ccc(COC)cc1 [Example 22, (R)—N1-(4-(methoxymethyl)phenyl)-2-tetradecanamidosuccinamide]
[1]
  Assay 1 (SGF) (% Remaining @ 1 hours): C (>75% of the tested compound remaining)

## CCCCCCCCCCCCCC(=O)N[C@H](CC(N)=O)C(=O)N[C@@H](C)CCC(=O)O[C@]1(CC)C(=O)OCc2c1cc1n(c2=O)Cc2c-1nc1ccc(O)cc1c2CC [Example 35, (S)-4,11-diethyl-9-hydroxy-3,14-dioxo-3,4,12,14-tetrahydro-1H-pyrano[3′,4′:6,7]indolizino[1,2-b]quinolin-4-yl (S)-4-((R)-4-amino-4-oxo-2-tetradecanamidobutanamido)pentanoate]
[1]
  Assay 1 (SGF) (% Remaining @ 1 hours): C (>75% of the tested compound remaining)
[2]
  Bacteria-free media (Luminescence, average of three runs): 380490
[3]
  % payload released in ClbP negative (BL21 DE3) at 1:1 ratio of E. coli to fecal bacteria: 0.6%
[4]
  % payload released in ClbP positive (Nissle 1917) at 1:1 ratio of E. coli to fecal bacteria: 0.9%

## CCCCCCCC(=O)N[C@H](CC(N)=O)C(=O)NCCN(C)C(=O)Oc1ccc2c(C)cc(=O)oc2c1 [Example 70, 4-methyl-2-oxo-2H-chromen-7-yl (R)-(2-(4-amino-2-octanamido-4-oxobutanamido)ethyl)(methyl)carbamate]
[1]
  Assay 1 (SGF) (% Remaining @ 1 hours): C (>75% of the tested compound remaining)
[3]
  % payload released in ClbP negative (BL21 DE3) at 1:1 ratio of E. coli to fecal bacteria: 1.9%
[4]
  % payload released in ClbP positive (Nissle 1917) at 1:1 ratio of E. coli to fecal bacteria: 25.1%

Source: patent US11998610B2, “Conjugates and methods of using the same” (Flagship Pioneering Innovations V, Inc., priority 2018, dated 2024)
